Reference: ChEMBL document CHEMBL1147881, “Synthesis and herbicidal activity of novel pyrazolo[3,4-d]pyrimidin-4-one derivatives containing aryloxyphenoxypropionate moieties” (2007)

The compounds below were run on Echinochloa crus-galli (assay: Herbicidal activity against barnyard grass assessed as inhibition of root growth at 100 mg/L relative to control).
Type: functional

Row | SMILES | inhibition at 100 µg/mL
1 | CCOC(=O)C(C)Oc1ccc(Oc2nc3c(c(S(C)(=O)=O)nn3-c3ccccc3)c(=O)n2C(=O)Nc2cccc(C)c2)cc1 (stereo not drawn) | 95.6%
2 | CCOC(=O)C(C)Oc1ccc(Oc2nc3c(c(SC)nn3-c3ccccc3)c(=O)n2C(=O)Nc2ccccc2)cc1 (stereo not drawn) | 88.5%
3 | CCCOC(=O)C(C)Oc1ccc(Oc2nc3c(c(SC)nn3-c3ccccc3)c(=O)n2C(=O)Nc2ccccc2Cl)cc1 (stereo not drawn) | 64.3%
4 | COC(=O)C(C)Oc1ccc(Oc2nc3c(c(S(C)(=O)=O)nn3-c3ccccc3)c(=O)n2C(=O)Nc2ccccc2F)cc1 (stereo not drawn) | 53.3%
5 | CCOC(=O)COc1ccc(Oc2nc3c(c(SCc4ccccc4)nn3-c3ccccc3)c(=O)n2C(=O)Nc2cccc(C)c2)cc1 | 75.5%
6 | CCOC(=O)C(C)Oc1ccc(Oc2nc3c(c(SC)nn3-c3ccccc3)c(=O)n2C(=O)Nc2cccc(C)c2)cc1 (stereo not drawn) | 88.5%

These compounds were tested on Echinochloa crus-galli (assay: Herbicidal activity against barnyard grass assessed as inhibition of root growth at 10 mg/L relative to control).
Type: functional

Row | SMILES | inhibition at 10 µg/mL
7 | CCOC(=O)C(C)Oc1ccc(Oc2nc3c(c(S(C)(=O)=O)nn3-c3ccccc3)c(=O)n2C(=O)Nc2cccc(C)c2)cc1 (stereo not drawn) | 54.3%
8 | CCOC(=O)C(C)Oc1ccc(Oc2nc3c(c(SC)nn3-c3ccccc3)c(=O)n2C(=O)Nc2ccccc2)cc1 (stereo not drawn) | 57.7%
9 | CCCOC(=O)C(C)Oc1ccc(Oc2nc3c(c(SC)nn3-c3ccccc3)c(=O)n2C(=O)Nc2ccccc2Cl)cc1 (stereo not drawn) | 53.4%
10 | COC(=O)C(C)Oc1ccc(Oc2nc3c(c(S(C)(=O)=O)nn3-c3ccccc3)c(=O)n2C(=O)Nc2ccccc2F)cc1 (stereo not drawn) | 33.3%
11 | CCOC(=O)COc1ccc(Oc2nc3c(c(SCc4ccccc4)nn3-c3ccccc3)c(=O)n2C(=O)Nc2cccc(C)c2)cc1 | 66.7%
12 | CCOC(=O)C(C)Oc1ccc(Oc2nc3c(c(SC)nn3-c3ccccc3)c(=O)n2C(=O)Nc2cccc(C)c2)cc1 (stereo not drawn) | 59.6%

The compounds below were run on Brassica napus (assay: Herbicidal activity against rape assessed as inhibition of root growth at 10 mg/L relative to control).
Type: functional

Row | SMILES | inhibition at 10 µg/mL
13 | CCOC(=O)C(C)Oc1ccc(Oc2nc3c(c(S(C)(=O)=O)nn3-c3ccccc3)c(=O)n2C(=O)Nc2cccc(C)c2)cc1 (stereo not drawn) | 51%
14 | CCOC(=O)C(C)Oc1ccc(Oc2nc3c(c(SC)nn3-c3ccccc3)c(=O)n2C(=O)Nc2ccccc2)cc1 (stereo not drawn) | 57.4%
15 | CCCOC(=O)C(C)Oc1ccc(Oc2nc3c(c(SC)nn3-c3ccccc3)c(=O)n2C(=O)Nc2ccccc2Cl)cc1 (stereo not drawn) | 5.5%
16 | COC(=O)C(C)Oc1ccc(Oc2nc3c(c(S(C)(=O)=O)nn3-c3ccccc3)c(=O)n2C(=O)Nc2ccccc2F)cc1 (stereo not drawn) | 16.3%
17 | CCOC(=O)COc1ccc(Oc2nc3c(c(SCc4ccccc4)nn3-c3ccccc3)c(=O)n2C(=O)Nc2cccc(C)c2)cc1 | 20.6%
18 | CCOC(=O)C(C)Oc1ccc(Oc2nc3c(c(SC)nn3-c3ccccc3)c(=O)n2C(=O)Nc2cccc(C)c2)cc1 (stereo not drawn) | 46.5%

Each compound was assayed on Brassica napus (assay: Herbicidal activity against rape assessed as inhibition of stalk growth at 100 mg/L relative to control).
Type: functional

Row | SMILES | inhibition at 100 µg/mL
19 | CCOC(=O)C(C)Oc1ccc(Oc2nc3c(c(S(C)(=O)=O)nn3-c3ccccc3)c(=O)n2C(=O)Nc2cccc(C)c2)cc1 (stereo not drawn) | 74.4%
20 | CCOC(=O)C(C)Oc1ccc(Oc2nc3c(c(SC)nn3-c3ccccc3)c(=O)n2C(=O)Nc2ccccc2)cc1 (stereo not drawn) | 46.2%
21 | CCCOC(=O)C(C)Oc1ccc(Oc2nc3c(c(SC)nn3-c3ccccc3)c(=O)n2C(=O)Nc2ccccc2Cl)cc1 (stereo not drawn) | 8.5%
22 | COC(=O)C(C)Oc1ccc(Oc2nc3c(c(S(C)(=O)=O)nn3-c3ccccc3)c(=O)n2C(=O)Nc2ccccc2F)cc1 (stereo not drawn) | 0%
23 | CCOC(=O)COc1ccc(Oc2nc3c(c(SCc4ccccc4)nn3-c3ccccc3)c(=O)n2C(=O)Nc2cccc(C)c2)cc1 | 24%
24 | CCOC(=O)C(C)Oc1ccc(Oc2nc3c(c(SC)nn3-c3ccccc3)c(=O)n2C(=O)Nc2cccc(C)c2)cc1 (stereo not drawn) | 63.5%

These compounds were tested on Brassica napus (assay: Herbicidal activity against rape assessed as inhibition of stalk growth at 10 mg/L relative to control).
Type: functional

Row | SMILES | inhibition at 10 µg/mL
25 | CCOC(=O)C(C)Oc1ccc(Oc2nc3c(c(S(C)(=O)=O)nn3-c3ccccc3)c(=O)n2C(=O)Nc2cccc(C)c2)cc1 (stereo not drawn) | 17.9%
26 | CCOC(=O)C(C)Oc1ccc(Oc2nc3c(c(SC)nn3-c3ccccc3)c(=O)n2C(=O)Nc2ccccc2)cc1 (stereo not drawn) | 12.9%
27 | CCCOC(=O)C(C)Oc1ccc(Oc2nc3c(c(SC)nn3-c3ccccc3)c(=O)n2C(=O)Nc2ccccc2Cl)cc1 (stereo not drawn) | 10.6%
28 | COC(=O)C(C)Oc1ccc(Oc2nc3c(c(S(C)(=O)=O)nn3-c3ccccc3)c(=O)n2C(=O)Nc2ccccc2F)cc1 (stereo not drawn) | 0%
29 | CCOC(=O)COc1ccc(Oc2nc3c(c(SCc4ccccc4)nn3-c3ccccc3)c(=O)n2C(=O)Nc2cccc(C)c2)cc1 | 20%
30 | CCOC(=O)C(C)Oc1ccc(Oc2nc3c(c(SC)nn3-c3ccccc3)c(=O)n2C(=O)Nc2cccc(C)c2)cc1 (stereo not drawn) | 9.6%

What follows are compounds tested on Brassica napus (assay: Herbicidal activity against rape assessed as inhibition of root growth at 100 mg/L relative to control).
Type: functional

Row | SMILES | inhibition at 100 µg/mL
31 | CCOC(=O)C(C)Oc1ccc(Oc2nc3c(c(S(C)(=O)=O)nn3-c3ccccc3)c(=O)n2C(=O)Nc2cccc(C)c2)cc1 (stereo not drawn) | 98%
32 | CCOC(=O)C(C)Oc1ccc(Oc2nc3c(c(SC)nn3-c3ccccc3)c(=O)n2C(=O)Nc2ccccc2)cc1 (stereo not drawn) | 86.1%
33 | CCCOC(=O)C(C)Oc1ccc(Oc2nc3c(c(SC)nn3-c3ccccc3)c(=O)n2C(=O)Nc2ccccc2Cl)cc1 (stereo not drawn) | 36.7%
34 | COC(=O)C(C)Oc1ccc(Oc2nc3c(c(S(C)(=O)=O)nn3-c3ccccc3)c(=O)n2C(=O)Nc2ccccc2F)cc1 (stereo not drawn) | 28%
35 | CCOC(=O)COc1ccc(Oc2nc3c(c(SCc4ccccc4)nn3-c3ccccc3)c(=O)n2C(=O)Nc2cccc(C)c2)cc1 | 64.1%
36 | CCOC(=O)C(C)Oc1ccc(Oc2nc3c(c(SC)nn3-c3ccccc3)c(=O)n2C(=O)Nc2cccc(C)c2)cc1 (stereo not drawn) | 97%

These compounds were tested on Echinochloa crus-galli (assay: Herbicidal activity against barnyard grass assessed as inhibition of stalk growth at 100 mg/L relative to control).
Type: functional

Row | SMILES | inhibition at 100 µg/mL
37 | CCOC(=O)C(C)Oc1ccc(Oc2nc3c(c(S(C)(=O)=O)nn3-c3ccccc3)c(=O)n2C(=O)Nc2cccc(C)c2)cc1 (stereo not drawn) | 51.7%
38 | CCOC(=O)C(C)Oc1ccc(Oc2nc3c(c(SC)nn3-c3ccccc3)c(=O)n2C(=O)Nc2ccccc2)cc1 (stereo not drawn) | 32.3%
39 | CCCOC(=O)C(C)Oc1ccc(Oc2nc3c(c(SC)nn3-c3ccccc3)c(=O)n2C(=O)Nc2ccccc2Cl)cc1 (stereo not drawn) | 25.8%
40 | COC(=O)C(C)Oc1ccc(Oc2nc3c(c(S(C)(=O)=O)nn3-c3ccccc3)c(=O)n2C(=O)Nc2ccccc2F)cc1 (stereo not drawn) | -21%
41 | CCOC(=O)COc1ccc(Oc2nc3c(c(SCc4ccccc4)nn3-c3ccccc3)c(=O)n2C(=O)Nc2cccc(C)c2)cc1 | -10.5%
42 | CCOC(=O)C(C)Oc1ccc(Oc2nc3c(c(SC)nn3-c3ccccc3)c(=O)n2C(=O)Nc2cccc(C)c2)cc1 (stereo not drawn) | 0%

The compounds below were run on Echinochloa crus-galli (assay: Herbicidal activity against barnyard grass assessed as inhibition of stalk growth at 10 mg/L relative to control).
Type: functional

Row | SMILES | inhibition at 10 µg/mL
43 | CCOC(=O)C(C)Oc1ccc(Oc2nc3c(c(S(C)(=O)=O)nn3-c3ccccc3)c(=O)n2C(=O)Nc2cccc(C)c2)cc1 (stereo not drawn) | 3.4%
44 | CCOC(=O)C(C)Oc1ccc(Oc2nc3c(c(SC)nn3-c3ccccc3)c(=O)n2C(=O)Nc2ccccc2)cc1 (stereo not drawn) | 12.9%
45 | CCCOC(=O)C(C)Oc1ccc(Oc2nc3c(c(SC)nn3-c3ccccc3)c(=O)n2C(=O)Nc2ccccc2Cl)cc1 (stereo not drawn) | 25.8%
46 | COC(=O)C(C)Oc1ccc(Oc2nc3c(c(S(C)(=O)=O)nn3-c3ccccc3)c(=O)n2C(=O)Nc2ccccc2F)cc1 (stereo not drawn) | 10.5%
47 | CCOC(=O)COc1ccc(Oc2nc3c(c(SCc4ccccc4)nn3-c3ccccc3)c(=O)n2C(=O)Nc2cccc(C)c2)cc1 | 5.3%
48 | CCOC(=O)C(C)Oc1ccc(Oc2nc3c(c(SC)nn3-c3ccccc3)c(=O)n2C(=O)Nc2cccc(C)c2)cc1 (stereo not drawn) | -12.9%
